The test system of data set [1] is patients with Bipolar I Disorder, Most Recent Episode Depressed. The format is in vivo, human. Here is the method: The YMRS is an 11 item scale designed to measure core manic symptoms (Young et al., Br. J. Psychiatry, 133:429-435). A cumulative score of 15 or greater on the YMRS was considered evidence of a treatment emergent affective switch. The HAM-A scale is a measure of global anxiety, including cognitive and somatic symptoms.
A six-week, double blind, placebo-controlled, dose-escalation study was performed to assess the safety and efficacy of uridine in bipolar I depression. Eight-four (84) patients of both sexes were enrolled at twelve sites, randomized on a 1:1 basis to receive either placebo or uridine. To decrease the probability of a false negative result, uridine or placebo were given as monotherapy, and no concurrent bipolar medications, including mood stabilizers, atypical antipsychotics, antidepressants, anticonvulsants or other psychotropic medications were allowed during the study. Patients taking such medications were tapered gradually during the 28 days prior to initiation of the trial. Patients were evaluated each week over the 6-week trial period, with an extensive intervention plan for any patient having exacerbation of bipolar or depressive symptoms. After the trial period, patients were eligible to initiate therapy for bipolar disease and a follow-up visit occurred at week ten.
Informed consent was provided by all patients. […]

Data set [2] concerns patients (e.g. hereditary orotic aciduria). To be noted: cited from earlier work.
For data set [3], the system named is patients undergoing cancer chemotherapy. The note with it: cited from earlier work.

Consider `O=c1ccn([C@@H]2O[C@H](CO)[C@@H](O)[C@H]2O)c(=O)[nH]1` [uridine], for which, in data set [1] (in vivo), the “Exacerbation of mean YMRS on treatment” value is recorded as “did not exacerbate the mean YMRS”. For the same molecule, in data set [1] (while on treatment, p=0.025), the “Change in YMRS from baseline in comparison to placebo, MERM” value was “significant decrease”. In data set [2] (dosages higher than 1000 mg/kg/day), the “Effect of higher dosages in some patients” value was “mild diarrhea”. The “Toxic effects of pure uridine, long-term experience” value in data set [2] (dosages of up to 1000 mg/kg/day) is reported as “no known toxic effects”. In addition, the Plasma uridine levels in data set [2] (oral, doses greater than 240 mg/kg) is 60 to 80 µM. For the same molecule, the “Side effects noted with high dose oral uridine” value in data set [2] (oral, typically at doses greater than 240 mg/kg) is “diarrhea and abdominal cramps”. Also, the “Main side effects seen with IV uridine” value in data set [3] is “infusion site phlebitis and transient shivering and fever”. The “Sustained elevations in plasma uridine” value in data set [3] (intravenous, cancer chemotherapy context) is recorded as “exceeding 2,000 μM”.

The record behind these values is patent publication US20110160158A1, “METHODS OF TREATMENT OF BIPOLAR DISORDER” (REPLIGEN CORPORATION, priority 2008, published 2011).
